# Patent US20040005537A1, “Method of identifying toxic agents using differential gene expression” (priority 2000, published 2004)
# What was measured:
# [1] = grouping used to generate the distinguishing gene profiles; cited from earlier work
# [2] = tested on: rat heart tissue; assay: GENECALLING differential gene expression analysis after dosing of serotonin modulating agents; format: in vivo, Sprague Dawley rats
# How it was run: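 Rats dosed with serotonin modulating agents, controls given sterile water or canola oil; tissue taken 24 h after the last dose. Total RNA converted to cDNA and profiled by GENECALLING differential expression analysis; fragments changed more than ±1.5-fold were selected.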
structure (smiles),measurement,setting,value
CC(C)CC(N(C)C)C1(c2ccc(Cl)cc2)CCC1 (stereo not drawn) [sibutramine],classification as cardiotoxic or noncardiotoxic serotonin modulating agent,[1],noncardiotoxic
same,"Effects on Transcription Level: Novel gene fragment, 524 bp, 86% SI to mouse F-box protein FBX6b [AF176526]",[2]; CARDIOTOX 1,+1.3 fold
same,"Effects on Transcription Level: Novel gene fragment, 306 bp, 91% SI to mouse low density lipoprotein receptor related protein 4 [AB013874]",[2]; CARDIOTOX 2,−1.3 fold
same,"Effects on Transcription Level: Novel gene fragment, 540 bp, 97% SI to mouse skeletal muscle alpha-actin [X03766]",[2]; CARDIOTOX 3,−1.1 fold
same,"Effects on Transcription Level: Novel gene fragment, 80 bp",[2]; CARDIOTOX 4,−1.3 fold
same,"Effects on Transcription Level: Novel gene fragment, 957 bp, 99% SI to kidney injury associated moleculer HW036 [V80591]",[2]; CARDIOTOX 5,−1.0 fold
same,"Effects on Transcription Level: Novel gene fragment, 282 bp, 85% SI to human KIAA1515 protein [AB040948]",[2]; CARDIOTOX 6,−1.4 fold
same,"Effects on Transcription Level: Novel gene fragment, 405 bp, 88% SI to human 2-oxoglutarate dehydrogenase [D10523]",[2]; CARDIOTOX 7,−1.4 fold
same,Effects on Transcription Level: UCP2,"[2]; CARDIOTOX 8, GenBank AB010743",−1.3 fold
same,Effects on Transcription Level: Plasma membrane Ca2 + ATPase-isoform 1,"[2]; CARDIOTOX 9, GenBank J03753",+1.2 fold
same,"Effects on Transcription Level: Novel gene fragment, 242 bp, 97% SI to mouse HSP86 heat-shock protein [X16857]",[2]; CARDIOTOX 10,+1.4 fold
same,"Effects on Transcription Level: Novel gene fragment, 280 bp, 65% SI to human TRF1-interacting, ankyrin-related ADP-ribose polymerase [AF082556]",[2]; CARDIOTOX 11,+1.2 fold
same,"Effects on Transcription Level: Novel gene fragment, 348 bp, 88% SI to mouse Sec61 protein complex gamma subunit [U11027]",[2]; CARDIOTOX 12,+1.4 fold
same,"Effects on Transcription Level: Novel gene fragment 553 bp, 93% SI to mouse Sid329 [AB024984]",[2]; CARDIOTOX 13,+1.1 fold
same,Effects on Transcription Level: Kruppel-like transcription factor,"[2]; CARDIOTOX 14, GenBank AB020759",+1.1 fold
same,Effects on Transcription Level: Ribosomal protein L3,"[2]; CARDIOTOX 15, GenBank X62166",+1.3 fold
same,Effects on Transcription Level: Glucose-regulated protein (GRP) 75,"[2]; CARDIOTOX 16, GenBank S78556",+1.1 fold
same,Effects on Transcription Level: Immunoglobulin heavy chain binding protein (BiP),"[2]; CARDIOTOX 17, GenBank M14050",−1.1 fold
same,Effects on Transcription Level: Membrane-spannining proteoglycan NG2,"[2]; CARDIOTOX 18, GenBank X56541",−1.1 fold
same,"Effects on Transcription Level: Novel gene fragment, 1294 bp, 96% SI to mouse Sui 1 (elF) homolog [AF129888]",[2]; CARDIOTOX 19,+1.1 fold
same,"Effects on Transcription Level: Novel gene fragment, 723 bp, 85% SI to human translation initiation factor elF3 p40 subunit [U54559]",[2]; CARDIOTOX 20,−1.1 fold
same,"Effects on Transcription Level: Novel gene fragment, 1324 bp, 76% SI to human flavoprotein subunit of complex II [D30648]",[2]; CARDIOTOX 21,+1.4 fold
same,"Effects on Transcription Level: Novel gene fragment, 852 bp, 81% SI to human vacuolar proton-ATPase subunit M9.2 [Y15286]",[2]; CARDIOTOX 22,+1.2 fold
same,"Effects on Transcription Level: Novel gene fragment, 178 bp, 91% SI to mouse myosin light chain-2 isoform MLC-2a [S70785]",[2]; CARDIOTOX 23,+1.4 fold
same,"Effects on Transcription Level: Novel gene fragment, 167 bp, 90% SI to mouse Rab20 [X80332]",[2]; CARDIOTOX 24,+1.0 fold
same,"Effects on Transcription Level: Novel gene fragment, 1070 bp, 80% SI to human muscle-specific protein [AF249873]",[2]; CARDIOTOX 25,+1.2 fold
same,"Effects on Transcription Level: Novel gene fragment, 1143 bp, 82% SI to human sarcoma amplified sequence (SAS) [U01160]",[2]; CARDIOTOX 26,+1.3 fold
same,"Effects on Transcription Level: Novel gene fragment, 74 bp,75% SI to human secreted protein [X30160] (from patent database)/[X97578] (from patent database)/potential cytokine)",[2]; CARDIOTOX 27,−1.3 fold
same,"Effects on Transcription Level: Novel gene fragment, 408 bp, 90% SI to human CGI-07 protein [AF132941]",[2]; CARDIOTOX 28,−1.0 fold
same,"Effects on Transcription Level: Novel gene fragment, 618 bp, 95% SI to rat progression related cDNA, ZNPE-120 3′ end partial sequence [patent database X90805]",[2]; CARDIOTOX 29,+1.0 fold
same,"Effects on Transcription Level: Novel gene fragment, 717 bp",[2]; CARDIOTOX 30,+1.2 fold
same,"Effects on Transcription Level: Novel gene fragment, 546 bp",[2]; CARDIOTOX 31,+1.3 fold
same,"Effects on Transcription Level: Novel gene fragment, 920 bp, 91% SI to human HSPC061 [AF161546]",[2]; CARDIOTOX 32,+1.2 fold
same,"Effects on Transcription Level: Novel gene fragment, 203 bp, 92% SI to rabbit sarcoplasmic reticulum glycoprotein [J04480]",[2]; CARDIOTOX 33,−1.2 fold
same,"Effects on Transcription Level: Novel gene fragment, 178 bp, 68% SI to mouse IgG receptor (beta-Fc-gamma-RII)[M63159]",[2]; CARDIOTOX 34,+1.4 fold
same,Effects on Transcription Level: Ribosomal protein L6,"[2]; CARDIOTOX 35, GenBank X87107",+1.4 fold
same,Effects on Transcription Level: CAP2 protein (adenylyl cyclase-associated protein 2),"[2]; CARDIOTOX 36, GenBank U31935",+1.4 fold
same,Effects on Transcription Level: Alpha-platelet-derived growth factor receptor,"[2]; CARDIOTOX 37, GenBank M63837",−1.1 fold
same,Effects on Transcription Level: Rab GD1 alpha protein,"[2]; CARDIOTOX 38, GenBank X74402",−1.1 fold
same,Effects on Transcription Level: PKC-zeta-interacting protein,"[2]; CARDIOTOX 39, GenBank Y08355",−1.2 fold
same,Effects on Transcription Level: ERK or MAP kinase,"[2]; CARDIOTOX 40, GenBank X65198",+1.4 fold
same,Effects on Transcription Level: Peroxisomal multifunctional enzyme type II,"[2]; CARDIOTOX 41, GenBank U37486",+1.3 fold
same,Effects on Transcription Level: HBP23 (heme-binding protein 23 kDa),"[2]; CARDIOTOX 42, GenBank D30035",+1.3 fold
same,Effects on Transcription Level: Caveolae-associated protein,"[2]; CARDIOTOX 43, GenBank U90725",−1.0 fold
same,Effects on Transcription Level: Prenylated rab acceptor 1 (PRA1),"[2]; CARDIOTOX 44, GenBank AF025506",+1.4 fold
same,"Effects on Transcription Level: Novel gene fragment, 337 bp, 88% SI to rabbit cardiac ryanodine receptor (RyR-2)[U50465]",[2]; CARDIOTOX 45,−1.3 fold
same,"Effects on Transcription Level: Novel gene fragment, 81 bp, 85% SI to human titin [X90568]",[2]; CARDIOTOX 46,−1.3 fold
same,"Effects on Transcription Level: Novel gene fragment, 428 bp, 86% SI to human titin [X90568]",[2]; CARDIOTOX 47,−1.1 fold
same,"Effects on Transcription Level: Novel gene fragment, 374 bp, 88% SI to human titin [X90568]",[2]; CARDIOTOX 48,−1.2 fold
same,"Effects on Transcription Level: Novel gene fragment, 428 bp, 85% SI to human titin [90568]",[2]; CARDIOTOX 49,−1.3 fold
same,"Effects on Transcription Level: Novel gene fragment, 1216 bp, 93% SI to mouse mircotubule-associated protein (MAP) 1B protein [AF115776]",[2]; CARDIOTOX 50,−1.1 fold
same,"Effects on Transcription Level: Novel gene fragment, 1115 bp, 83% SI to human KIAA0549 protein [AB011121]",[2]; CARDIOTOX 51,−1.4 fold
same,"Effects on Transcription Level: Novel gene fragment, 153 bp",[2]; CARDIOTOX 52,−1.2 fold
same,"Effects on Transcription Level: Novel gene fragment, 89 bp, 93% SI to human putative glialblastoma cell differentiation-related protein (GBDR1) [AF068195]",[2]; CARDIOTOX 53,+1.4 fold
same,Effects on Transcription Level: Rho-associated kinase beta,"[2]; CARDIOTOX 54, GenBank U61266",−1.1 fold
same,Effects on Transcription Level: Adenylate kinase 3,"[2]; CARDIOTOX 55, GenBank D13062",+1.4 fold
same,Effects on Transcription Level: Amyloid beta-peptide binding protein,"[2]; CARDIOTOX 56, GenBank AF049878",+1.3 fold
same,Effects on Transcription Level: Mitochondrial adenine nuleotide translocator,"[2]; CARDIOTOX 57, GenBank D12771",+1.4 fold
same,"Effects on Transcription Level: Novel gene fragment, 710 bp, 94% SI to mouse chromatin structural protein homolog Supt5 hp (Supt5 h)[U88539]",[2]; CARDIOTOX 58,+7.5 fold
same,"Effects on Transcription Level: Novel gene fragment, 186 bp, 66% SI to human N-acetylglucosaminyltransferase 1 (GlcNAc-TI)[M55621]",[2]; CARDIOTOX 60,−1.9 fold
same,"Effects on Transcription Level: Novel gene fragment, 238 bp, 95% SI to mouse MAP kinase-activated protein kinase 2 [X76850]",[2]; CARDIOTOX 61,−2.8 fold
same,"Effects on Transcription Level: Novel gene fragment, 173 bp, 70% SI to G protein-coupled receptor kinase GRK4 [X97568]",[2]; CARDIOTOX 62,−5.3 fold
same,"Effects on Transcription Level: Novel gene fragment, 133 bp, 77% SI to human apoptosis related protein hSARP3 [patent database: V19114]",[2]; CARDIOTOX 63,−2.0 fold
same,"Effects on Transcription Level: Novel gene fragment, 477 bp, 98% SI to peroxisomal phytanoyl-CoA hydroxylase (PHYH) [AF121345]",[2]; CARDIOTOX 64,+7.0 fold
same,"Effects on Transcription Level: Novel gene fragment, 413 bp, 95% SI to mouse dihydrolipoamide dehydrogenase (Dld) [U73445]",[2]; CARDIOTOX 65,+1.6 fold
same,"Effects on Transcription Level: Novel gene fragment, 726 bp, 76% SI to human succinate dehydrogenase flavoprotein subunit (SDH) [L21936]",[2]; CARDIOTOX 66,−3.0 fold
same,"Effects on Transcription Level: Novel gene fragment, 440 bp, 92% SI to mouse cytochrome c oxidase Vllc [X52940]",[2]; CARDIOTOX 67,+11.5 fold
same,"Effects on Transcription Level: Novel gene fragment, 276 bp, 80% SI to human titin [X90568]",[2]; CARDIOTOX 68,−6.6 fold
same,"Effects on Transcription Level: Novel gene fragment, 149 bp, 70% SI to human titin [X90568]",[2]; CARDIOTOX 69,−2.4 fold
